Measured values published in patent publication US11000509B2, “Methods and compositions for daily ophthalmic administration of phentolamine to improve visual performance” (Ocuphire Pharma, Inc., priority 2013, dated 2021).
Structures can show the parent of a compound that is named as a salt. Marks after values point to notes of the source that are not given here.

Assays:
[1] = test system: eyes of patients with pupil size in dim light of greater than 7 mm; experiment: Example 2 clinical study: monocular low contrast visual acuity under photopic conditions (5% tint chart); type: in vivo, humans; details: for mean low contrast acuity compared to baseline: paired t-test
Procedure: (§1) Sixteen patients were randomized into four groups (of four subjects each). Each group was treated on three successive study visits separated by at least 4 days with one drop of ophthalmic oxymetazoline solution (Visine LR®) in each eye followed by one drop test article in each eye. The test article was a 0.2% (w/v) phentolamine mesylate solution, 0.4% (w/v) phentolamine mesylate solution, 0.8% (w/v) phentolamine mesylate solution, or placebo. Test articles contained the designed amount of phentolamine mesylate in a solution of Tears Naturale II® (from Alcon Labs). Placebo was just Tears Naturale II® (from Alcon Labs). Tears Naturale II® (from Alcon Labs) contains Dextran 70 (0.1% by weight), Hydroxypropyl Methylcellulose 2910 (0.3% by weight), Polyquarternium-1 (0.001% by weight), potassium chloride, water (purified), sodium borate, sodium chloride, and hydrochloric acid and/or sodium hydroxide as necessary to adjust the pH. The patients' eye redness and pupil diameters were recorded at baseline (i.e., prior to treatment administration), and at 30 minutes, 1 hour, 2 hours, 4 hours, and 8 hours after administration of test articles. The incidence of any treatment-emergent adverse events was also recorded. Total study duration was approximately nine hours.
(§2) Eye redness of patients' eyes was evaluated by the research assistant and recorded as a single integer of value 0 (no redness) to 4 (extreme redness) at baseline and each time point after treatment. Pupil diameters were measured to within 0.1 mm for each eye at baseline and each subsequent time point using a NeurOptics™ pupilometer. Monocular high contrast visual acuity was measured for each eye under photopic conditions at baseline and each subsequent time point in a darkened room using a Precision Vision™ High Contrast (100% tint) Visual Acuity Chart (Catalog #2102) backlit by the Precision Vision Illumination Box. Monocular low contrast visual acuity was measured for each eye under photopic conditions at baseline and each subsequent time point in a darkened room using a Precision Vision™ Low Contrast (5% tint) Visual Acuity Chart (Catalog #2186) backlit by the Precision Vision Illumination Box. Effect of treatment on glare was assessed using an experimental test method consisting of a panel with a high wattage central light emitting diode (LED) and a set of 7 lower wattage red LEDs radiating horizontally and vertically from the central light.
(§3) Comparisons of changes in mean values within treatment groups were tested for significance using two-tailed paired two sample t-tests with a threshold for significance set at p<0.01 (Bonferroni Correction for multiple paired t-tests). Differences between treatment groups with respect to mean values for pupil size over the course of the study were tested for significance using repeated measure ANOVA (which discards data from subjects lacking any data points). Differences in mean eye redness between treatment groups were evaluated using Kruskal-Wallis nonparametric testing. Differences in means between treatment groups at individual time points were tested for significance using one-way ANOVA.

[2] = test system: eyes of patients with pupil size in dim light of greater than 7 mm; experiment: Example 2 clinical study: monocular high contrast visual acuity under photopic conditions (100% tint chart); type: in vivo, humans
Procedure: as §1, §2, §3

[3] = 0.2% (w/v) solution, 30 min after treatment
[4] = 0.2% (w/v) solution, 1 hour after treatment
[5] = 0.2% (w/v) solution, 2 hours after treatment
[6] = 0.2% (w/v) solution, 4 hours after treatment
[7] = 0.2% (w/v) solution, 8 hours after treatment
[8] = 0.2% (w/v) solution, Baseline, prior to treatment
[9] = 0.4% (w/v) solution, 30 min after treatment
[10] = 0.4% (w/v) solution, 1 hour after treatment
[11] = 0.4% (w/v) solution, 2 hours after treatment
[12] = 0.4% (w/v) solution, 4 hours after treatment
[13] = 0.4% (w/v) solution, 8 hours after treatment
[14] = 0.4% (w/v) solution, Baseline, prior to treatment
[15] = 0.8% (w/v) solution, 30 min after treatment
[16] = 0.8% (w/v) solution, 1 hour after treatment
[17] = 0.8% (w/v) solution, 2 hours after treatment
[18] = 0.8% (w/v) solution, 4 hours after treatment
[19] = 0.8% (w/v) solution, 8 hours after treatment
[20] = 0.8% (w/v) solution, Baseline, prior to treatment

Compound: Cc1ccc(N(CC2=NCCN2)c2cccc(O)c2)cc1 [Phentolamine Mesylate, phentolamine mesylate]
- Maximum low contrast visual acuity [1, 3]: −0.10 LogMar
- Mean low contrast visual acuity [1, 3]: −0.35 LogMar
- Minimum low contrast visual acuity [1, 3]: −0.78 LogMar
- Maximum low contrast visual acuity [1, 4]: −0.08 LogMar
- Mean low contrast visual acuity [1, 4]: −0.32 LogMar
- Minimum low contrast visual acuity [1, 4]: −0.80 LogMar
- Maximum low contrast visual acuity [1, 5]: −0.11 LogMar
- Mean low contrast visual acuity [1, 5]: −0.32 LogMar
- Minimum low contrast visual acuity [1, 5]: −0.74 LogMar
- Maximum low contrast visual acuity [1, 6]: 0.00 LogMar
- Mean low contrast visual acuity [1, 6]: −0.30 LogMar
- Minimum low contrast visual acuity [1, 6]: −0.76 LogMar
- Maximum low contrast visual acuity [1, 7]: −0.08 LogMar
- Mean low contrast visual acuity [1, 7]: −0.30^e LogMar
- Minimum low contrast visual acuity [1, 7]: −0.72 LogMar
- Maximum low contrast visual acuity [1, 8]: −0.06 LogMar
- Mean low contrast visual acuity [1, 8]: −0.34^d LogMar
- Minimum low contrast visual acuity [1, 8]: −0.80 LogMar
- Maximum low contrast visual acuity [1, 9]: 0.00 LogMar
- Mean low contrast visual acuity [1, 9]: −0.24 LogMar
- Minimum low contrast visual acuity [1, 9]: −0.70 LogMar
- Maximum low contrast visual acuity [1, 10]: −0.04 LogMar
- Mean low contrast visual acuity [1, 10]: −0.24 LogMar
- Minimum low contrast visual acuity [1, 10]: −0.78 LogMar
- Maximum low contrast visual acuity [1, 11]: 0.00 LogMar
- Mean low contrast visual acuity [1, 11]: −0.22 LogMar
- Minimum low contrast visual acuity [1, 11]: −0.64 LogMar
- Maximum low contrast visual acuity [1, 12]: 0.00 LogMar
- Mean low contrast visual acuity [1, 12]: −0.20 LogMar
- Minimum low contrast visual acuity [1, 12]: −0.70 LogMar
- Maximum low contrast visual acuity [1, 13]: 0.00 LogMar
- Mean low contrast visual acuity [1, 13]: −0.22 LogMar
- Minimum low contrast visual acuity [1, 13]: −0.64 LogMar
- Maximum low contrast visual acuity [1, 14]: −0.10 LogMar
- Mean low contrast visual acuity [1, 14]: −0.28 LogMar
- Minimum low contrast visual acuity [1, 14]: −0.74 LogMar
- mean low contrast acuity compared to baseline ([1]; 0.4% (w/v), 1, 2, 4, and 8 hours post treatment): significant increases
- Maximum low contrast visual acuity [1, 15]: −0.02 LogMar
- Mean low contrast visual acuity [1, 15]: −0.28 LogMar
- Minimum low contrast visual acuity [1, 15]: −0.76 LogMar
- Maximum low contrast visual acuity [1, 16]: 0.00 LogMar
- Mean low contrast visual acuity [1, 16]: −0.25 LogMar
- Minimum low contrast visual acuity [1, 16]: −0.62 LogMar
- Maximum low contrast visual acuity [1, 17]: 0.00 LogMar
- Mean low contrast visual acuity [1, 17]: −0.22 LogMar
- Minimum low contrast visual acuity [1, 17]: −0.60 LogMar
- Maximum low contrast visual acuity [1, 18]: 0.00 LogMar
- Mean low contrast visual acuity [1, 18]: −0.22 LogMar
- Minimum low contrast visual acuity [1, 18]: −0.70 LogMar
- Maximum low contrast visual acuity [1, 19]: 0.00 LogMar
- Mean low contrast visual acuity [1, 19]: −0.25 LogMar
- Minimum low contrast visual acuity [1, 19]: −0.78 LogMar
- Maximum low contrast visual acuity [1, 20]: −0.11 LogMar
- Mean low contrast visual acuity [1, 20]: −0.34 LogMar
- Minimum low contrast visual acuity [1, 20]: −0.78 LogMar
- mean low contrast acuity compared to baseline ([1]; 0.8% (w/v), all post-treatment time points): significant increases
- maximal mean increase in low contrast visual acuity ([1]; 0.8% (w/v), at 2 hours): 0.12 Log Mar
- improvement in low contrast vision ([1]; 0.8% (w/v), at 2 hours, equivalent of the maximal mean increase): ~6 letters on a Snellen chart
- mean low contrast visual acuity, 0.2% (w/v) versus 0.4% and 0.8% (w/v) (ad hoc Fisher's test) ([1]; 2 hours post-dosing, P<0.05): significant differences
- Maximum high contrast visual acuity [2, 3]: 0.22 LogMar
- Mean high contrast visual acuity [2, 3]: 0.05 LogMar
- Minimum high contrast visual acuity [2, 3]: −0.32 LogMar
- Maximum high contrast visual acuity [2, 4]: 0.22 LogMar
- Mean high contrast visual acuity [2, 4]: 0.08 LogMar
- Minimum high contrast visual acuity [2, 4]: −0.20 LogMar
- Maximum high contrast visual acuity [2, 5]: 0.26 LogMar
- Mean high contrast visual acuity [2, 5]: 0.08 LogMar
- Minimum high contrast visual acuity [2, 5]: −0.22 LogMar
- Maximum high contrast visual acuity [2, 6]: 0.22 LogMar
- Mean high contrast visual acuity [2, 6]: 0.09 LogMar
- Minimum high contrast visual acuity [2, 6]: −0.20 LogMar
- Maximum high contrast visual acuity [2, 7]: 0.22 LogMar
- Mean high contrast visual acuity [2, 7]: 0.08 LogMar
- Minimum high contrast visual acuity [2, 7]: −0.32 LogMar
- Maximum high contrast visual acuity [2, 8]: 0.22 LogMar
- Mean high contrast visual acuity [2, 8]: 0.04 LogMar
- Minimum high contrast visual acuity [2, 8]: −0.32 LogMar
- Maximum high contrast visual acuity [2, 9]: 0.22 LogMar
- Mean high contrast visual acuity [2, 9]: 0.12 LogMar
- Minimum high contrast visual acuity [2, 9]: −0.20 LogMar
- Maximum high contrast visual acuity [2, 10]: 0.26 LogMar
- Mean high contrast visual acuity [2, 10]: 0.11 LogMar
- Minimum high contrast visual acuity [2, 10]: −0.20 LogMar
- Maximum high contrast visual acuity [2, 11]: 0.30 LogMar
- Mean high contrast visual acuity [2, 11]: 0.14 LogMar
- Minimum high contrast visual acuity [2, 11]: −0.10 LogMar
- Maximum high contrast visual acuity [2, 12]: 0.30 LogMar
- Mean high contrast visual acuity [2, 12]: 0.15 LogMar
- Minimum high contrast visual acuity [2, 12]: −0.11 LogMar
- Maximum high contrast visual acuity [2, 13]: 0.30 LogMar
- Mean high contrast visual acuity [2, 13]: 0.13 LogMar
- Minimum high contrast visual acuity [2, 13]: −0.18 LogMar
- Maximum high contrast visual acuity [2, 14]: 0.22 LogMar
- Mean high contrast visual acuity [2, 14]: 0.09 LogMar
- Minimum high contrast visual acuity [2, 14]: −0.24 LogMar
- Maximum high contrast visual acuity [2, 15]: 0.22 LogMar
- Mean high contrast visual acuity [2, 15]: 0.11 LogMar
- Minimum high contrast visual acuity [2, 15]: −0.16 LogMar
- Maximum high contrast visual acuity [2, 16]: 0.26 LogMar
- Mean high contrast visual acuity [2, 16]: 0.12 LogMar
- Minimum high contrast visual acuity [2, 16]: −0.10 LogMar
- Maximum high contrast visual acuity [2, 17]: 0.30 LogMar
- Mean high contrast visual acuity [2, 17]: 0.12 LogMar
- Minimum high contrast visual acuity [2, 17]: −0.16 LogMar
- Maximum high contrast visual acuity [2, 18]: 0.30 LogMar
- Mean high contrast visual acuity [2, 18]: 0.12 LogMar
- Minimum high contrast visual acuity [2, 18]: −0.20 LogMar
- Maximum high contrast visual acuity [2, 19]: 0.30 LogMar
- Mean high contrast visual acuity [2, 19]: 0.13 LogMar
- Minimum high contrast visual acuity [2, 19]: −0.20 LogMar
- Maximum high contrast visual acuity [2, 20]: 0.22 LogMar
- Mean high contrast visual acuity [2, 20]: 0.06 LogMar
- Minimum high contrast visual acuity [2, 20]: −0.41 LogMar
- maximal mean increase in high contrast visual acuity ([2]; 0.8%, at 4 and 8 hours): 0.06 Log Mar
- improvement in high contrast vision ([2]; 0.8%, at 4 and 8 hours, equivalent of the maximal mean increase): ~3 letters on a Snellen chart
